Test results published in ChEMBL document CHEMBL1201862, “PubChem BioAssay data set” (2004).
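How tested: cells in 96-well plates exposed to compound for 48 hours at five concentrations. Here, GI50 denotes the concentration required for 50% inhibition of growth.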 The source made the active and inactive calls. Cut-off read from the data, not from the text of the source: active = GI50 up to about 1.1 µM and inactive = higher.

Key:
Experiment in all cases: NCI tumour cell line growth inhibition, 48 h
[1] = test system: 786-0
[2] = test system: A498
[3] = test system: A549
[4] = test system: ACHN
[5] = test system: CCRF-CEM
[6] = test system: COLO 205
[7] = test system: DLD-1
[8] = test system: EKVX
[9] = test system: HCC 2998
[10] = test system: HCT-116
[11] = test system: HCT-15
[12] = test system: HL-60
[13] = test system: HOP-18
[14] = test system: HOP-62
[15] = test system: HOP-92
[16] = test system: HT-29
[17] = test system: IGROV-1
[18] = test system: K562
[19] = test system: KM-20L2
[20] = test system: KM12
[21] = test system: LOX IMVI
[22] = test system: LXFL 529
[23] = test system: M14
[24] = test system: M19-MEL
[25] = test system: MOLT-4
[26] = test system: Malme-3M
[27] = test system: NCI-H226
[28] = test system: NCI-H23
[29] = test system: NCI-H460
[30] = test system: NCI-H522
[31] = test system: OVCAR-3
[32] = test system: OVCAR-4
[33] = test system: OVCAR-5
[34] = test system: OVCAR-8
[35] = test system: RPMI-8226
[36] = test system: RXF 393
[37] = test system: RXF 631
[38] = test system: SF-268
[39] = test system: SF-295
[40] = test system: SF-539
[41] = test system: SK-MEL-28
[42] = test system: SK-MEL-2
[43] = test system: SK-MEL-5
[44] = test system: SK-OV-3
[45] = test system: SN12C
[46] = test system: SNB-19
[47] = test system: SNB-75
[48] = test system: SNB-78
[49] = test system: SW-620
[50] = test system: TK-10
[51] = test system: U-251
[52] = test system: UACC-257
[53] = test system: UACC-62
[54] = test system: UO-31
[55] = test system: XF498

`Cc1nc2ccccc2c(=O)[nH]1` was tested, and the GI50 [1] was > 100 µM (inactive), the GI50 [2] was > 100 µM (inactive) and the GI50 [3] was > 100 µM (inactive). For the same compound, the GI50 [4] was > 100 µM (inactive), the GI50 [5] was > 100 µM (inactive) and the GI50 [6] was > 100 µM (inactive). For the same compound, the GI50 [7] was > 100 µM (inactive), the GI50 [8] was > 100 µM (inactive) and the GI50 [9] was > 100 µM (inactive). For the same compound, the GI50 [10] was > 100 µM (inactive), the GI50 [11] was > 100 µM and the GI50 [12] was > 100 µM (inactive). For the same compound, the GI50 [13] was > 100 µM (inactive), the GI50 [14] was > 100 µM (inactive) and the GI50 [15] was > 100 µM (inactive). For the same compound, the GI50 [16] was > 100 µM (inactive), the GI50 [17] was > 100 µM (inactive) and the GI50 [18] was > 100 µM (inactive). For the same compound, the GI50 [19] was > 100 µM (inactive), the GI50 [20] was > 100 µM (inactive) and the GI50 [21] was > 100 µM (inactive). The GI50 [22] was > 100 µM (inactive), the GI50 [23] was > 100 µM (inactive) and the GI50 [24] was > 100 µM (inactive). The GI50 [25] was > 100 µM (inactive), the GI50 [26] was > 100 µM (inactive) and the GI50 [27] was > 100 µM (inactive). For the same compound, the GI50 [28] was > 100 µM (inactive), the GI50 [29] was > 100 µM (inactive) and the GI50 [30] was > 100 µM (inactive). For the same compound, the GI50 [31] was > 100 µM (inactive), the GI50 [32] was > 100 µM (inactive) and the GI50 [33] was > 100 µM (inactive). The GI50 [34] was > 100 µM (inactive), the GI50 [35] was > 100 µM (inactive) and the GI50 [36] was > 100 µM (inactive). The GI50 [37] was > 100 µM (inactive), the GI50 [38] was > 100 µM (inactive) and the GI50 [39] was > 100 µM (inactive). For the same compound, the GI50 [40] was > 100 µM (inactive), the GI50 [41] was > 100 µM (inactive) and the GI50 [42] was > 100 µM (inactive). The GI50 [43] was > 100 µM (inactive), the GI50 [44] was > 100 µM (inactive) and the GI50 [45] was > 100 µM (inactive). For the same compound, the GI50 [46] was > 100 µM (inactive), the GI50 [47] was 37.1 µM (inactive) and the GI50 [48] was > 100 µM (inactive). The GI50 [49] was > 100 µM (inactive), the GI50 [50] was > 100 µM (inactive) and the GI50 [51] was > 100 µM (inactive). For the same compound, the GI50 [52] was > 100 µM (inactive), the GI50 [53] was > 100 µM (inactive) and the GI50 [54] was > 100 µM (inactive). The GI50 [55] was > 100 µM (inactive).
